US5773438A, “Synthetic matrix metalloprotease inhibitors and use thereof” (Glycomed Incorporated, priority 1994, dated 1998)

Columns and labels:
[1] = test system: MMPs; details: cited from earlier work
[2] = test system: PdiBu-Induced Epidermal Hyperplasia; assay: PdiBu-induced epidermal hyperplasia mouse model (psoriasis); format: in vivo, hairless mice
Method: The phorbol ester, PdiBu (20 nmol in 20 μl if acetone) was applied to both ears of hairless mice (h/h) (approximately 1 cm^2 each). The test compounds (in total volume of 20 μl) were then applied to the right ear immediately (15 to 30 min) following PdiBu. The left ear of each animal received an equivalent amount (20 μl) of vehicle. Test compounds (and vehicle) were reapplied at 6 and 18 hours following PdiBu. Treatment times were staggered to allow exact time intervals to be obtained. At 30 hours after PdiBu, animals were anesthetized, and ear thickness values were obtained using a microcaliper. The weights of punch biopsies (6mm) were then obtained. Histology was performed on selected samples taken at 30 hours.
Left ear in each animal served as vehicle-treated controls (PdiBu+ETOH). Thus, the controls for this series include: 1) Untreated controls; 2) PdiBu plus vehicle alone (included for each mouse tested); 3) PdiBu plus AHA; 4) PdiBu plus Lidex® as a positive control.

[3] = molecular target: Recombinant neutrophil collagenase (Homo sapiens, UniProt P22894); assay: inhibition of recombinant neutrophil collagenase (Table 2); format: biochemical; details: read-out: NC inhibitory activity
Method: (§1) Specifically, assay of inhibition activity can be conducted as follows. […] Assays for inhibition of human stromelysin are conducted as described by Teahan, J., et al., Biochemistry (1989) 20:8497-8501.
(§2) Assay of inhibition activity can be conducted using a fluorogenic substrate developed by Knight et al., FEBS Letters (1992) 296:263. This method uses a fluorometer to determine the rate of substrate hydrolysis in a 96 well plate format. Reaction rates are determined at several substrate concentrations, and multiple inhibitor levels. The data are analyzed by Lineweaver-Burk, Dixon and Henderson plot analyses (Enzyme Kinetics (1975) Irwin Segal (John Wiley & Sons, Inc., publishers), and as described by Henderson, Biochem J. (1972) 127:321). The substrate levels range from 10-30μM. […] Inhibitors may be assayed against purified 72 kD gelatinase, 92 kD gelatinase, neutrophil collagenase, stromelysin or other proteases as appropriate. The enzymes are activated at 37° C. with APMA (4-aminophenylmercuric acetate), and the assays are carried out at room temperature.

[4] = molecular target: 92kD gelatinase (Homo sapiens, UniProt P14780); assay: inhibition of 92kD gelatinase (Table 2); format: biochemical; details: read-out: 92kD G inhibitory activity
[5] = molecular target: T1, Human gingival fibrblast collagenase (Homo sapiens, UniProt P03956); assay: inhibition of human gingival fibroblast collagenase (Table 2); format: biochemical; details: read-out: HGFC inhibitory activity
T1 construct: endogenous in cells; host or cells: human gingival fibroblasts
T1 sequence (P03956 100-469): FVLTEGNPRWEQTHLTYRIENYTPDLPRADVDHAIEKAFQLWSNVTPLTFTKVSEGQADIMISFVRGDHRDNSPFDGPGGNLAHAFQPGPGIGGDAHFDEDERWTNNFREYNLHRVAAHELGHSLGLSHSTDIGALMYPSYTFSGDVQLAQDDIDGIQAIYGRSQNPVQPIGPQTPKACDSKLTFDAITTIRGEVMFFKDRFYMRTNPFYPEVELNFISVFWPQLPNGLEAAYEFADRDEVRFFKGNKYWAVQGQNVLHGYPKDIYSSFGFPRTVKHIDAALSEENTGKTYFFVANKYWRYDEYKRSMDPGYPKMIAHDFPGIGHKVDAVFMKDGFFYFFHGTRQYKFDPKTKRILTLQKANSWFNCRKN
Method: as §1, §2

[6] = molecular target: Stromelysin (Homo sapiens, UniProt P08254); assay: inhibition of stromelysin (Table 2); format: biochemical; details: read-out: Strom inhibitory activity
Method: as §1, §2

[7] = molecular target: T2, Natural human 72kD gelatinase (Homo sapiens, UniProt P08253); assay: inhibition of 72kD gelatinase (Table 2); format: biochemical; details: read-out: 72kD G inhibitory activity
T2 sequence (P08253 110-660): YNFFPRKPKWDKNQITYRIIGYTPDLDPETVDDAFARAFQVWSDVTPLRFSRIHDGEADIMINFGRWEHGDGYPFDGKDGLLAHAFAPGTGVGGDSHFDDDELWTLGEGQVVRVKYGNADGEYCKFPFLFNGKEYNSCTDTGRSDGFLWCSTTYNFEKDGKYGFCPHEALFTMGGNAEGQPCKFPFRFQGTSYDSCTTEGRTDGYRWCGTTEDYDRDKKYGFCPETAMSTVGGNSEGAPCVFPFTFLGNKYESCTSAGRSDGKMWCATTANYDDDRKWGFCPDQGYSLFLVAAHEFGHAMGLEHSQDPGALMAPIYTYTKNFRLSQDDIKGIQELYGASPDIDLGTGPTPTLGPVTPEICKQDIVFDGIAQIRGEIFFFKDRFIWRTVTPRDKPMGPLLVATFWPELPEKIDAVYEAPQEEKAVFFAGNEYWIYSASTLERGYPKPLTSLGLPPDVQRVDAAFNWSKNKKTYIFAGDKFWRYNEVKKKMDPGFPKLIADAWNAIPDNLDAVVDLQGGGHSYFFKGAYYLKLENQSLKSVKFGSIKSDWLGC
Method: as §1, §2

[8] = test system: angiogenesis; details: cited from earlier work

Chain of Recombinant neutrophil collagenase (P22894 101-467): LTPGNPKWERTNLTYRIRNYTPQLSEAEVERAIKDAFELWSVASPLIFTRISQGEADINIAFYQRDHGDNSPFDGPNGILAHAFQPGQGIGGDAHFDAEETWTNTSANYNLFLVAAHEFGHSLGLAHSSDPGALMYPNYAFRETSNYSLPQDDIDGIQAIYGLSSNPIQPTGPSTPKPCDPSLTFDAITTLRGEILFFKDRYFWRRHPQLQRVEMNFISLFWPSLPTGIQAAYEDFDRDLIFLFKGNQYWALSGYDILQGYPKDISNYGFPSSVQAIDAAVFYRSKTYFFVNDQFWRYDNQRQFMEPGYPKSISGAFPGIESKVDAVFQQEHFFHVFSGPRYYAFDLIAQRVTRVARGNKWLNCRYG
Chain of 92kD gelatinase (P14780 107-707 limits assumed): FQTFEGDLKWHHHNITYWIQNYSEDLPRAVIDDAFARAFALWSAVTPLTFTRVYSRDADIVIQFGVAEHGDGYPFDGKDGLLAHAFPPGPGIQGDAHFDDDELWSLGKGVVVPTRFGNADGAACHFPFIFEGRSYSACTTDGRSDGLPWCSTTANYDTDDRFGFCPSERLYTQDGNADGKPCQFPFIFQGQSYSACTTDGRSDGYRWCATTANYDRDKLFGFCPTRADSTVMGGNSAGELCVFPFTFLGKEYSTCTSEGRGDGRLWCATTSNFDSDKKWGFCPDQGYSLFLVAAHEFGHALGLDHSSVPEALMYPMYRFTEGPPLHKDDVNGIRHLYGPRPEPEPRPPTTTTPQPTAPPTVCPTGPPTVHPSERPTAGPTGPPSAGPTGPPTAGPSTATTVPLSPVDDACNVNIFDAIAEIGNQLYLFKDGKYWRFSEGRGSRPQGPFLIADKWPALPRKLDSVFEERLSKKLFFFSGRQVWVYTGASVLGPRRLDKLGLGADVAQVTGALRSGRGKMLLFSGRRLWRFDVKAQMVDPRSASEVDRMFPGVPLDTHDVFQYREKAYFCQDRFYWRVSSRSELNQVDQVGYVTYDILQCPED
Chain of Stromelysin (P08254 100-477): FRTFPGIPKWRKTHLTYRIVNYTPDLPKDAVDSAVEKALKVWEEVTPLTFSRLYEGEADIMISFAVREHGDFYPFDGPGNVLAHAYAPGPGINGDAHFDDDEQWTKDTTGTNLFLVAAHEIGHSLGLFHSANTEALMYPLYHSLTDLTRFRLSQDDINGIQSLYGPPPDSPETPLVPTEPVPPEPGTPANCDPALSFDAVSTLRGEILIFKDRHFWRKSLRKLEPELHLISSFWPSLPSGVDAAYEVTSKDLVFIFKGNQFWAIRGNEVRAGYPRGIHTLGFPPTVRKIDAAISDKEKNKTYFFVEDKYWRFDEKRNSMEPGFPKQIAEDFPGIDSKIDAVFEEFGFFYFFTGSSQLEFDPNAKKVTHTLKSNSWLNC

| Ki [3] | Ki [4] | Ki [5] | Ki [6] | Ki [7] | Structure (SMILES) | inhibitory effects on MMPs [1] | ear thickness (AHA control) ([2]; PdiBu + AHA, 0.53 μmol/ear at 0.25, 6.0 and 24 hours) | biopsy weight (AHA control) ([2]; PdiBu + AHA, 0.53 μmol/ear at 0.25, 6.0 and 24 hours, in mg) | ear thickness (positive control section) ([2]; Positive Control: Lidex (fluocinonide) section, single experiment) | biopsy weight (positive control section) ([2]; Positive Control: Lidex (fluocinonide) section, single experiment, in mg) | effect on PdiBu-induced ear thickness ([2]; topical) | effect on PdiBu-induced increase in punch biopsy weight ([2]; topical) | activity as an angiogenesis inhibitor [8] |
| --- | --- | --- | --- | --- | --- | --- | --- | --- | --- | --- | --- | --- | --- |
| 3260 nM | 3580 nM | 80 nM | > 10000 nM | 9260 nM | C[C@H](NC(=O)[C@H](Cc1c[nH]c2ccccc12)NC(=O)[C@@H](CC(=O)NO)NC(=O)OC(C)(C)C)c1ccccc1 [Compound 82, Boc-D-beta-hydroxamidoaspartyl-1 -tryptophan-(S)-methylbenzylamide] |  |  |  |  |  |  |  |  |
| 0.19 nM | 0.97 nM | 0.6 nM | 57 nM | 0.81 nM | CC(C)C[C@H](CC(=O)NO)C(=O)N[C@@H](Cc1c[nH]c2ccccc12)C(=O)NCCN1CCOCC1 [Compound 52, N-[2-Isobutyl-3-(N'-hydroxyamidocarbonyl)-propanoyl]-L-tryptophan-3(4-morpholinyl)-n-ethylamide] |  |  |  |  |  |  |  |  |
| > 10000 nM | > 10000 nM | 2000 nM | > 10000 nM | > 10000 nM | C[C@H](NC(=O)[C@H](Cc1c[nH]c2ccccc12)NC(=O)[C@@H](CCC(=O)O)NC(=O)OC(C)(C)C)c1ccccc1 [Compound 78] |  |  |  |  |  |  |  |  |

Further lines, the compound ahead of its results:

| Structure (SMILES) | Ki [3] | Ki [4] | Ki [5] | Ki [6] | Ki [7] | inhibitory effects on MMPs [1] | ear thickness (AHA control) ([2]; PdiBu + AHA, 0.53 μmol/ear at 0.25, 6.0 and 24 hours) | biopsy weight (AHA control) ([2]; PdiBu + AHA, 0.53 μmol/ear at 0.25, 6.0 and 24 hours, in mg) | ear thickness (positive control section) ([2]; Positive Control: Lidex (fluocinonide) section, single experiment) | biopsy weight (positive control section) ([2]; Positive Control: Lidex (fluocinonide) section, single experiment, in mg) | effect on PdiBu-induced ear thickness ([2]; topical) | effect on PdiBu-induced increase in punch biopsy weight ([2]; topical) | activity as an angiogenesis inhibitor [8] |
| --- | --- | --- | --- | --- | --- | --- | --- | --- | --- | --- | --- | --- | --- |
| CC(=O)NO [AHA, acetohydroxamic acid, reference compound] |  |  |  |  |  | devoid of inhibitory effects on MMPs | 36.8 ± 1.3 inch × 10^-3 | 24.1 ± 1.2 | 15.8 ± 0.4 | 9.7 ± 0.3 | did not alter | did not alter |  |
| CCCCC[C@H](CC(=O)NO)C(=O)N[C@H](C(=O)N1CCC[C@H]1CO)C(C)C [actinonin] |  |  |  |  |  |  |  |  |  |  |  |  | angiogenesis inhibitor |
